Measured values: ChEMBL document CHEMBL5034019, “Discovery of the Next-Generation Pan-TRK Kinase Inhibitors for the Treatment of Cancer” (J Med Chem, 2021)
Converted amounts (≈) assume the structure as drawn.

Assays:
[1] = target: High affinity nerve growth factor receptor (Homo sapiens, UniProt P04629)
Description: Inhibition of TrKA (unknown origin) incubated for 120 mins in presence of 33P-ATP

BaF3 [2] = assay: Cytotoxicity against mouse BaF3 cells transfected with TrKA G595R mutant assessed as reduction in cell viability by MTT assay; assay type: functional, cell-based
[3] = Apparent permeability across apical to basolateral side in human Caco-2 cells incubated for 2 hrs by LC-MS/MS analysis; assay type: ADME, cell-based
BaF3 [4] = assay: Cytotoxicity against mouse BaF3 cells transfected with TrKA F589L mutant assessed as reduction in cell viability by MTT assay; assay type: functional, cell-based
Cytochrome P450 3A4 = Cytochrome P450 3A4 (Homo sapiens, UniProt P08684); assay: Inhibition of CYP3A4 in human pooled liver microsomes using midazolam and testosterone as substrate in presence of NADPH by LC-MS/MS analysis; assay type: ADME
[5] = Metabolic stability in dog liver microsomes assessed as intrinsic clearance at 1 uM by LC-MS/MS analysis; assay type: ADME, Canis lupus familiaris, Microsome; conditions: read-out: CLH
[6] = Metabolic stability in human liver microsomes assessed as intrinsic clearance at 1 uM by LC-MS/MS analysis; assay type: ADME, Microsome; conditions: read-out: CLH
Cytochrome P450 1A2 = target: T1, Cytochrome P450 1A2 (Homo sapiens, UniProt P05177); assay: Inhibition of CYP1A2 in human pooled liver microsomes using phenacetin as substrate in presence of NADPH by LC-MS/MS analysis; assay type: ADME
T1 sequence (P05177 whole entry): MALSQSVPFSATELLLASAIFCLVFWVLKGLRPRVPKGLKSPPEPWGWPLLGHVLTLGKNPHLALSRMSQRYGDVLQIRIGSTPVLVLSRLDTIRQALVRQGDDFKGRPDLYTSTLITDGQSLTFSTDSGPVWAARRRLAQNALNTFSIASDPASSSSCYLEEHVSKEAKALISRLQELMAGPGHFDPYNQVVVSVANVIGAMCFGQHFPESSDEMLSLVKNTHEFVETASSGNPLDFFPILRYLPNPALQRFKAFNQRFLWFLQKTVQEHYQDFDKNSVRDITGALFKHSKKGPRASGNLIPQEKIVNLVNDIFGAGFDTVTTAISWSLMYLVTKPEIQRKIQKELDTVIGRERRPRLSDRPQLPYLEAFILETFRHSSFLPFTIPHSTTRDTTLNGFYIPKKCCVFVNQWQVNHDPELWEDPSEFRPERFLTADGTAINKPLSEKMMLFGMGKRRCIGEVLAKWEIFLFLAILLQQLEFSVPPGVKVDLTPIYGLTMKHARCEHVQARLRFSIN

[7] = Half life in Sprague-Dawley rat at 3 mg/kg measured up to 24 hrs by LC-MS/MS analysis; assay type: ADME, organism-based; conditions: in vivo
[8] = Oral bioavailability in Sprague-Dawley rat at 10 mg/kg measured up to 24 hrs by LC/MS/MS analysis; assay type: ADME, organism-based; conditions: in vivo
[9] = Protein binding in dog plasma assessed as unbound fraction by LC-MS/MS based equilibrium dialysis method; assay type: ADME, cell-free, Canis lupus familiaris
[10] = Tmax in Sprague-Dawley rat at 10 mg/kg, po measured up to 24 hrs by LC-MS analysis; assay type: ADME, organism-based; conditions: in vivo
BaF3 [11] = assay: cells; conditions: Mus musculus
Description: Cytotoxicity against mouse BaF3 cells transfected with TrKA assessed as reduction in cell viability by MTT assay

BaF3 [12] = assay: Cytotoxicity against mouse BaF3 cells transfected with TrKA G623R mutant assessed as reduction in cell viability by MTT assay; assay type: functional, cell-based
[13] = Metabolic stability in rat liver microsomes assessed as intrinsic clearance at 1 uM by LC-MS/MS analysis; assay type: ADME, Microsome; conditions: read-out: CLH
Cytochrome P450 2C9 = Cytochrome P450 2C9 (Homo sapiens, UniProt P11712); assay: Inhibition of CYP2C9 in human pooled liver microsomes using diclofenac as substrate in presence of NADPH by LC-MS/MS analysis; assay type: ADME
[14] = AUC (0 to t) in Sprague-Dawley rat at 10 mg/kg, po measured up to 24 hrs by LC-MS/MS analysis; assay type: ADME, organism-based; parameters: route oral, dose 10 mg/kg, time <=24; conditions: in vivo
[15] = Protein binding in human plasma assessed as unbound fraction by LC-MS/MS based equilibrium dialysis method; assay type: ADME, cell-free
[16] = C0 in Sprague-Dawley rat at 3 mg/kg measured up to 24 hrs by LC/MS/MS analysis; assay type: ADME, organism-based; conditions: in vivo
Cytochrome P450 2C19 = Cytochrome P450 2C19 (Homo sapiens, UniProt P33261); assay: Inhibition of CYP2C19 in human pooled liver microsomes using S-mephenytoin as substrate in presence of NADPH by LC-MS/MS analysis; assay type: ADME
BaF3 [17] = assay: Cytotoxicity against mouse BaF3 cells transfected with SLC34A2-Ros1 assessed as reduction in cell viability by MTT assay; assay type: functional, cell-based
Cytochrome P450 2D6 = Cytochrome P450 2D6 (Homo sapiens, UniProt P10635); assay: Inhibition of CYP2D6 in human pooled liver microsomes using dextromethorphan as substrate in presence of NADPH by LC-MS/MS analysis; assay type: ADME
[18] = Clearance in Sprague-Dawley rat at 3 mg/kg measured up to 24 hrs by LC/MS/MS analysis; assay type: ADME, organism-based; conditions: in vivo
[19] = AUC (0 to t) in Sprague-Dawley rat at 3 mg/kg measured up to 24 hrs by LC-MS/MS analysis; assay type: ADME, organism-based; parameters: dose 3 mg/kg, time <=24; conditions: in vivo
[20] = Cmax in Sprague-Dawley rat at 10 mg/kg, po measured up to 24 hrs by LC-MS/MS analysis; assay type: ADME, organism-based; parameters: route oral, dose 10 mg/kg, time <=24; conditions: in vivo
[21] = Protein binding in rat plasma assessed as unbound fraction by LC-MS/MS based equilibrium dialysis method; assay type: ADME, cell-free
[22] = Metabolic stability in mouse liver microsomes assessed as intrinsic clearance at 1 uM by LC-MS/MS analysis; assay type: ADME, Microsome; conditions: read-out: CLH
[23] = Kinetic solubility of the compound; assay type: physicochemical; conditions: read-out: Kinetic_solubility
[24] = Protein binding in mouse plasma assessed as unbound fraction by LC-MS/MS based equilibrium dialysis method; assay type: ADME, cell-free
[25] = Volume of distribution in Sprague-Dawley rat at 3 mg/kg measured up to 24 hrs by LC-MS/MS analysis; assay type: ADME, organism-based; conditions: in vivo
[26] = target: High affinity nerve growth factor receptor (Homo sapiens, UniProt P04629, G595R)
[27] = target: ALK tyrosine kinase receptor (Homo sapiens, UniProt Q9UM73)
Description: Inhibition of ALK (unknown origin) incubated for 120 mins in presence of 33P-ATP

[28] = target: Voltage-gated inwardly rectifying potassium channel KCNH2 (Homo sapiens, UniProt Q12809); assay: Inhibition of human ERG
Chain of Voltage-gated inwardly rectifying potassium channel KCNH2 (Q12809 whole entry): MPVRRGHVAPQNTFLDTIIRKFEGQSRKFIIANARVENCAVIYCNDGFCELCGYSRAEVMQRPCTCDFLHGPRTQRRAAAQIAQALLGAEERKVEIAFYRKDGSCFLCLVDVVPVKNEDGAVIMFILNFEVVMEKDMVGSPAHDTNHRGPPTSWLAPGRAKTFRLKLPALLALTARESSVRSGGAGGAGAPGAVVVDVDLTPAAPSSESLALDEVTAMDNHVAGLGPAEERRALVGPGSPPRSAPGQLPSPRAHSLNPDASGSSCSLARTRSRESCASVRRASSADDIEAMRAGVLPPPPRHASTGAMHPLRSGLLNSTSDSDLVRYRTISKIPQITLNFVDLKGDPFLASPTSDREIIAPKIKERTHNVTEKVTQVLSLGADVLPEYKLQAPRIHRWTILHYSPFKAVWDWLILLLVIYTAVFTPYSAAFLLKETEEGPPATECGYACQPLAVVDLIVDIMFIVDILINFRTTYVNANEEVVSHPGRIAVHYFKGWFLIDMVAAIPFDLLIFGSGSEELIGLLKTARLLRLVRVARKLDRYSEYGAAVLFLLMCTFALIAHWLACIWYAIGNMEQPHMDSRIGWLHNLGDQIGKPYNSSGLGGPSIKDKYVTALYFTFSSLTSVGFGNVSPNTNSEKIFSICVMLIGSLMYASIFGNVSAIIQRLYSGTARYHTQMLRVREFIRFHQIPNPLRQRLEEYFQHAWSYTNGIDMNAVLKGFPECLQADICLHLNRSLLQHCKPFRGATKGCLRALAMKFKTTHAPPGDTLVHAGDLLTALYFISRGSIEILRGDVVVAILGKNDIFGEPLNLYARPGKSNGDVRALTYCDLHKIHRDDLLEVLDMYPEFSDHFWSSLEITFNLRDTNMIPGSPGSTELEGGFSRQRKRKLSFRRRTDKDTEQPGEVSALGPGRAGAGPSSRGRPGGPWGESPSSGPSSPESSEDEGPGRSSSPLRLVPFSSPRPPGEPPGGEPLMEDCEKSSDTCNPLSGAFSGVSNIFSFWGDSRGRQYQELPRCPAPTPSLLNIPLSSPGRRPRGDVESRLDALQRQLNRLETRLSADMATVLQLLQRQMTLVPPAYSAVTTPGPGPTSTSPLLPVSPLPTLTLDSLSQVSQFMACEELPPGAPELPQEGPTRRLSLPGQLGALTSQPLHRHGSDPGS

Chain of High affinity nerve growth factor receptor (Homo sapiens, UniProt P04629) (P04629 whole entry): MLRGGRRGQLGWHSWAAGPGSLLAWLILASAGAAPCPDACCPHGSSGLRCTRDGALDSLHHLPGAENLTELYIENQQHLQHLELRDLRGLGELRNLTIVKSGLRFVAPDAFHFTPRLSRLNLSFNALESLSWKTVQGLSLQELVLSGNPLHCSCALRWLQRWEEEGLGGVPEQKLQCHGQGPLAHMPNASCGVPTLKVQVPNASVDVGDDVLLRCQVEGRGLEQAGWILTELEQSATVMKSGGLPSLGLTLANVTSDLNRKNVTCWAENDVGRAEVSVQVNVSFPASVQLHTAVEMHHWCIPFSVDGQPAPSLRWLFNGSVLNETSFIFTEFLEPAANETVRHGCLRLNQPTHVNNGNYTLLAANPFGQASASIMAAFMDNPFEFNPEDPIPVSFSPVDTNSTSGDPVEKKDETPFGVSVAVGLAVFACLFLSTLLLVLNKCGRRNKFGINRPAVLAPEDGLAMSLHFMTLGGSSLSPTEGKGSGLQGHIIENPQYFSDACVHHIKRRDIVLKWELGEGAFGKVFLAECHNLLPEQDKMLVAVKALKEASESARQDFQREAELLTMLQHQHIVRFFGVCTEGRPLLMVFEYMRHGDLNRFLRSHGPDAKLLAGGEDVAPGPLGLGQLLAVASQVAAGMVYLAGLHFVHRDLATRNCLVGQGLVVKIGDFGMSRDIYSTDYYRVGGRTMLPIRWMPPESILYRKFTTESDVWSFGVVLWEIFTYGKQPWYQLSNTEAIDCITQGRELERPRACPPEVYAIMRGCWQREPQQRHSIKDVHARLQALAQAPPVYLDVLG
Chain of Cytochrome P450 3A4 (P08684 whole entry): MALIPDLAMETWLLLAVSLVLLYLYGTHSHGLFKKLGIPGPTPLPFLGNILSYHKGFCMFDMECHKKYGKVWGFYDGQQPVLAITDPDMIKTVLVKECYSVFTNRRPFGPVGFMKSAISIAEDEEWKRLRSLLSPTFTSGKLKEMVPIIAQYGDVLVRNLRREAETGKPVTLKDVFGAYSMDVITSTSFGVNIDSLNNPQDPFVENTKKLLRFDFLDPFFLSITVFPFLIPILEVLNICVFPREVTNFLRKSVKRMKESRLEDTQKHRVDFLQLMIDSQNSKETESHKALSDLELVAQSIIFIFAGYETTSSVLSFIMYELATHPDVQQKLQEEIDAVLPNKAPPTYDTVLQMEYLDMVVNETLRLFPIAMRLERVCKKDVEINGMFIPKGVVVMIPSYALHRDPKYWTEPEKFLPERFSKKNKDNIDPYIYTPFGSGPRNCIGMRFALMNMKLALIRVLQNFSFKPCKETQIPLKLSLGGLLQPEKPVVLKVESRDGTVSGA
Chain of Cytochrome P450 2D6 (P10635 whole entry): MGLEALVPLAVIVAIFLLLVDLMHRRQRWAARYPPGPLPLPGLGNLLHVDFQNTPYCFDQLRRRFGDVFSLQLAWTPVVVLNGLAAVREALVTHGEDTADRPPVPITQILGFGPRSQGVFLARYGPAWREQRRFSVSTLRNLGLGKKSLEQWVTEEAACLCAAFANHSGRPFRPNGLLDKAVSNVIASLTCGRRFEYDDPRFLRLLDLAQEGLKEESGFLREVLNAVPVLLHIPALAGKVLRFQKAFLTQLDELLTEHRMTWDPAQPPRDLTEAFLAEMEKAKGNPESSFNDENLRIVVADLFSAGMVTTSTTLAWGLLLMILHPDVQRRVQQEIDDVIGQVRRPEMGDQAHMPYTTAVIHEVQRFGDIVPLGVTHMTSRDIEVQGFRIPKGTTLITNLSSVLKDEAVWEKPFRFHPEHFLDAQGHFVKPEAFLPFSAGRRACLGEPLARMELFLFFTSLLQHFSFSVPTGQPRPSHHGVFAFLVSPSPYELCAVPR
Chain of Cytochrome P450 2C9 (P11712 whole entry): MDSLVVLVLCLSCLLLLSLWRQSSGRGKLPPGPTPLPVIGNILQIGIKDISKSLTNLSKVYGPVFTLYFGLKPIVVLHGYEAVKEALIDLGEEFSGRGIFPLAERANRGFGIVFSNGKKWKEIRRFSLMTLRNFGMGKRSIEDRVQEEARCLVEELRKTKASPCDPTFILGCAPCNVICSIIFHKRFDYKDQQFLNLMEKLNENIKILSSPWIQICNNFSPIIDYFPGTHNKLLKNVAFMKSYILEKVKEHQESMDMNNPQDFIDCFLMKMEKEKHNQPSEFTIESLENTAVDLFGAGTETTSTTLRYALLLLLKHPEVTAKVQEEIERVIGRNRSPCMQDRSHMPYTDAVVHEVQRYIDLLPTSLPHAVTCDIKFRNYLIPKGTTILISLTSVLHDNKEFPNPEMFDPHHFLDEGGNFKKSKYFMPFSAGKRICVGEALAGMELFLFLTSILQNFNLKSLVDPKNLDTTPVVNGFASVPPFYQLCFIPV
Chain of ALK tyrosine kinase receptor (Q9UM73 whole entry): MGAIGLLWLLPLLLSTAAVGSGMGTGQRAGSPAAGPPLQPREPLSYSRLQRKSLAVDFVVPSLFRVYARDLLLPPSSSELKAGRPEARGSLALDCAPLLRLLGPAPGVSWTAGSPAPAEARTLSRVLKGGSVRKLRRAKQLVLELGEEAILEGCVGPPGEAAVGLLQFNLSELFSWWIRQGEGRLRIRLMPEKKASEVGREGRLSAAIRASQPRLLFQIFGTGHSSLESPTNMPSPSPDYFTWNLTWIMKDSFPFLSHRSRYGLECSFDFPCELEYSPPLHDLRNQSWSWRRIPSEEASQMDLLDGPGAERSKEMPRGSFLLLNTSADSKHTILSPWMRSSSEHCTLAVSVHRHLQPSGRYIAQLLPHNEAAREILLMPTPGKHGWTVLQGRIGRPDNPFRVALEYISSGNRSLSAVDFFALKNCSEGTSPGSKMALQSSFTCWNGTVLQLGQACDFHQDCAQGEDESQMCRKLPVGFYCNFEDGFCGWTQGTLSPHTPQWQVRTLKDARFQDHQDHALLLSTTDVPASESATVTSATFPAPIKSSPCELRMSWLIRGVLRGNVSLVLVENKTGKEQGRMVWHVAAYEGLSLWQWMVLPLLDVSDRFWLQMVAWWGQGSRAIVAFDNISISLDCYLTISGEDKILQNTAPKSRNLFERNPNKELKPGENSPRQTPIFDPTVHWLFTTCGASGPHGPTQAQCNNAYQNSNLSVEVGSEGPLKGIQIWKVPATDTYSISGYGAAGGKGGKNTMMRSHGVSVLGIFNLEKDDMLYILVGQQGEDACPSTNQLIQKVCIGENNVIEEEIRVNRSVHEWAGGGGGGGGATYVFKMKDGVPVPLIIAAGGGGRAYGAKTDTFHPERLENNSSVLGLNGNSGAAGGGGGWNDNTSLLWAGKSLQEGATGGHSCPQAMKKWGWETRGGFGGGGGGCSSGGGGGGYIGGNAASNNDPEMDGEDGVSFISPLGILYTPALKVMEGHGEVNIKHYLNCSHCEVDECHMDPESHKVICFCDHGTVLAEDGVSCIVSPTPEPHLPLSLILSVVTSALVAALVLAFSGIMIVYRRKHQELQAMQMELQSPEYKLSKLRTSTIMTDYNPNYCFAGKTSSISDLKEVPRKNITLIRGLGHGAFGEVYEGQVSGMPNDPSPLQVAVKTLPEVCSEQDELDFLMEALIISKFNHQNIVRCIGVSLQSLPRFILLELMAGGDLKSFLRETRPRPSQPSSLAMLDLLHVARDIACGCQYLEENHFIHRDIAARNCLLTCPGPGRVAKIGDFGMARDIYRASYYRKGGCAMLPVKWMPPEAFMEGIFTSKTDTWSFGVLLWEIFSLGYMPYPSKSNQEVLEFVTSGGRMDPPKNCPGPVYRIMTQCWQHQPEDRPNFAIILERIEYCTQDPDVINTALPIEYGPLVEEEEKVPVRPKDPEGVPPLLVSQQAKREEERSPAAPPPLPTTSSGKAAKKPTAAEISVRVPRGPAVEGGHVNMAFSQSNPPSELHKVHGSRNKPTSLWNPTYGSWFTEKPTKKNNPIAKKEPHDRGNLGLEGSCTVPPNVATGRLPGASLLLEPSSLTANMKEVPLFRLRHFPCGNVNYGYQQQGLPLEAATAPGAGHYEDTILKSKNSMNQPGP

| Compound | IC50 [1] [nM] | Papp A→B at 2 h [3] [×10⁻⁶ cm/s] | CLint scaled at 1 µM [5] [mL/min/kg] | CLint scaled at 1 µM [6] [mL/min/kg] | fraction unbound [9] | CLint scaled at 1 µM [13] [mL/min/kg] | fraction unbound [15] | fraction unbound [21] | CLint scaled at 1 µM [22] [mL/min/kg] | fraction unbound [24] | other results |
| --- | --- | --- | --- | --- | --- | --- | --- | --- | --- | --- | --- |
| C[C@H]1CNS(=O)(=O)c2cnn3ccc(nc23)N[C@H](C)c2cc(F)ccc2O1 | > 1000 | – | – | – | – | – | – | – | – | – | – |
| C[C@H]1CNC(=O)c2cnn3ccc(nc23)N[C@H](C)c2cc(F)ccc2O1 [REPOTRECTINIB] | – | 0.9 | 21 | 29 | 0.09 | 49 | 0.05 | 0.06 | 982 | 0.05 | IC50 (BaF3 [2]): 8 nM; IC50 (BaF3 [4]): 0.7 nM; IC50 (Cytochrome P450 3A4): > 50000 nM; IC50 (Cytochrome P450 1A2): > 50000 nM; half-life [7]: 2.8 h; bioavailability [8]: 119%; Tmax [10]: 0.8 h; IC50 (BaF3 [11]): 1.8 nM; IC50 (BaF3 [12]): 4.8 nM; IC50 (Cytochrome P450 2C9): 6400 nM; AUC(0-t) at 24 h [14]: 59.7 µM·h; C0 [16]: 12.87 µM; IC50 (Cytochrome P450 2C19): 12300 nM; IC50 (BaF3 [17]): 2.2 nM; IC50 (Cytochrome P450 2D6): 28500 nM; clearance [18]: 9.4 mL/min/kg; AUC(0-t) at 24 h [19]: 15 µM·h; Cmax [20]: 16.9 µM; solubility kinetic [23]: 65.8 µM (≈ 23.4 µg/mL); Vd [25]: 1.1 L/kg |
| O=C1NC2(CC2)COc2ncc(F)cc2[C@H]2CCCCN2c2ccn3ncc1c3n2 | 3.2 | 16.3 | 268 | 242 | 0.03 | 980 | 0.02 | 0.02 | 1010 | 0.02 | IC50 (BaF3 [2]): 0.4 nM; IC50 [26]: 2.1 nM; IC50 (BaF3 [12]): 5.8 nM; IC50 [27]: 18.5 nM; IC50 (BaF3 [17]): 12.6 nM |
| C[C@H]1NC(=O)c2cnn3ccc(nc23)N[C@H](C)c2cc(F)ccc2NC1=O | 846 | – | – | – | – | – | – | – | – | – | – |
| C[C@@H]1COc2ncc(F)cc2C23CC2CCN3c2ccn3ncc(c3n2)C(=O)N1 (some centres undefined) | 67.5 | – | – | – | – | – | – | – | – | – | – |
| O=C1NC2(CC2)COc2ncc(F)cc2[C@H]2CNCCN2c2ccn3ncc1c3n2 | – | 3.9 | 74 | 43 | 0.34 | 29 | 0.36 | 0.3 | 342 | 0.28 | IC50 [28]: 6700 nM |
| C[C@H]1Nc2ccn3ncc(c3n2)C(=O)N2CCN(CC2)c2ccc(F)cc21 | > 1000 | – | – | – | – | – | – | – | – | – | – |
| C[C@H]1Nc2ccn3ncc(c3n2)C(=O)N2CCC(CC2)c2ccc(F)cc21 | > 1000 | – | – | – | – | – | – | – | – | – | – |
